Measured values as given in PMC4089486, “Structural and biochemical analyses of alanine racemase from the multidrug-resistant Clostridium difficile strain 630” (Acta Crystallographica Section D: Biological Crystallography, 2014).

Experiments:
[1] = molecular target: T1, CdAlr (C. difficile alanine racemase; CdAlrWT) (Clostridioides difficile, UniProt Q180W0); assay: X-ray crystal structure, […] A; type: binding; conditions: covalent; internal aldimine with Lys39
T1 construct: gene alr2; monomer 43306 Da, homodimer; WT preparation partly cleaved at position 271 (fragments 1-271 and 272-382)

[2] = molecular target: T1, CdAlr (C. difficile alanine racemase; CdAlrWT); assay: X-ray co-crystal structure, […] A; type: binding; conditions: covalent; adduct with PLP (DCS) in the active site; 100 mM cycloserine

T1 sequence (Q180W0 entry or part of it): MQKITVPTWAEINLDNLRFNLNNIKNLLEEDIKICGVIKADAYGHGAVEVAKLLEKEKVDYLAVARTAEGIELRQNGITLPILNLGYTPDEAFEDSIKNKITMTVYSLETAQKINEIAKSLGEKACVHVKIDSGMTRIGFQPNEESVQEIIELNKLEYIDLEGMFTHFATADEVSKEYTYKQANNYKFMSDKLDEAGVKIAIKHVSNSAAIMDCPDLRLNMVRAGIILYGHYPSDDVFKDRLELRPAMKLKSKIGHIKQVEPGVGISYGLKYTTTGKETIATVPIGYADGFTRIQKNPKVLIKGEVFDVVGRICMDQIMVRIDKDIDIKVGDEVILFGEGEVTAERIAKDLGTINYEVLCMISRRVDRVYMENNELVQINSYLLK

Compound	X-ray crystal structure, 2.10 A [1]	X-ray co-crystal structure, 2.26 A [2]
Cc1ncc(COP(=O)(O)O)c(C=O)c1O [PLP]	Two structures (CdAlrK271T and CdAlrPLP) contain the cofactor PLP	–
N[C@@H]1CONC1=O [cycloserine]	–	In the CdAlrcycloserine structure, cycloserine forms a covalent adduct with PLP
